We go through 3 compounds from patent US20220339271A1, “MR1 RESTRICTED T CELL RECEPTORS FOR CANCER IMMUNOTHERAPY” (Universität Basel, priority 2018, published 2022).

Common to all, as to type: cell-based, human
In one data set the test system is control MAIT cells. Briefly: E. coli stimulation of control MAIT cells in the presence of 6-FP or Ac-6-FP. The conditions noted are these: for E. coli stimulation of control MAIT cells in the presence of the ligand: A375-MR1 target cells; for inhibition of activation of MAIT cells: target A375 cells expressing mutant MR1 (A375-MR1 K34A). On the procedure:
(§1) T cell activation assays. MR1-restricted T cells (5×10^4/well unless otherwise indicated) were co-cultured with indicated target cells (5×10^4/well) in 200 μl total volume in duplicates or triplicates. T cells were cultured with indicated APCs for 24 h. […] E. coli lysate was prepared from the DH5α strain (Invitrogen) grown in LB medium and collected during exponential growth. Bacterial cells were washed twice in PBS and then lysed by sonication. After centrifugation (15,000 g for 15 min), the supernatant was collected, dried, and stored at −70° C. APCs were pulsed for 4 h with E. coli lysate equivalent to 10^8 CFU/ml (unless otherwise indicated) before addition of T cells. In some experiments, APCs were pre-incubated with 6-FP or Ac-6-FP (Schircks Laboratories) for 4 h before co-culture with T cells. In control experiments with TCR γδ cells expressing TCR Vγ9 and Vδ2 chains, the APCs were first treated for 6 h with zoledronate (10 μg/ml) prior to T cell addition. Activation experiments with plate-bound recombinant human β2m-MR1-Fc were performed by coating β2m-MR1-Fc onto 96 well plates (4 μg/ml) and loading with cartridge-purified cell lysates for 4 h at 37° C. before washing twice and adding T cells. Supernatants were collected after 24 h and IFN-γ or GM-CSF were assessed by ELISA. Multiple cytokines and chemokines in cell culture supernatants were analyzed using the Milliplex MAP human cytokine/chemokine magnetic bead panel—Premixed 41 plex (HCYTMAG-60K-PX41; Merck Millipore) according to the manufacturer's instructions. Samples were acquired on a Flexmap 3D system (Merck Millipore) and Milliplex analyst software was used to determine mean fluorescence intensity and analyte concentration.

A further data set has as its system MR1T cell clones. Briefly: MR1T cell clone stimulation by A375-MR1 cells in the presence of 6-FP or Ac-6-FP. The following applies: for MR1T cell stimulation in the presence of the ligand: A375-MR1 target cells; for inhibition of activation of MR1T cells: target A375 cells expressing mutant MR1 (A375-MR1 K34A). On the procedure:
as §1

Another data set concerns TCR Vγ9Vδ2 clone G2B9. Briefly: Control TCR γδ cell response to zoledronate-treated APCs in the presence of 6-FP or Ac-6-FP. The procedure: as §1, with “In control experiments with TCR γδ cells expressing TCR Vγ9 and Vδ2 chains, the APCs were first treated for 6 h with zoledronate (10 μg/ml) prior to T cell addition. Activation experiments with plate-bound recombinant human β2m-MR1-Fc were performed by coating β2m-MR1-Fc onto 96 well plates (4 μg/ml) and loading with cartridge-purified cell lysates for 4 h at 37° C. before washing twice and adding T cells.” left out

The test system of the next data set is MAIT cell clone SMC3. Kind of data set: Stimulation of control MAIT cell clone by RL-6,7-diMe-loaded THP-1 cells. The procedure: T cell activation assays. MR1-restricted T cells (5×10^4/well unless otherwise indicated) were co-cultured with indicated target cells (5×10^4/well) in 200 μl total volume in duplicates or triplicates. T cells were cultured with indicated APCs for 24 h. In some experiments, anti-MR1 mAbs (clone 26.5) or mouse IgG2a isotype control mAbs (both at 30 μg/ml) were added and incubated for 30 min prior to the addition of T cells. E. coli lysate was prepared from the DH5α strain (Invitrogen) grown in LB medium and collected during exponential growth. Bacterial cells were washed twice in PBS and then lysed by sonication. After centrifugation (15,000 g for 15 min), the supernatant was collected, dried, and stored at −70° C. APCs were pulsed for 4 h with E. coli lysate equivalent to 10^8 CFU/ml (unless otherwise indicated) before addition of T cells. […] Supernatants were collected after 24 h and IFN-γ or GM-CSF were assessed by ELISA. Multiple cytokines and chemokines in cell culture supernatants were analyzed using the Milliplex MAP human cytokine/chemokine magnetic bead panel—Premixed 41 plex (HCYTMAG-60K-PX41; Merck Millipore) according to the manufacturer's instructions. Samples were acquired on a Flexmap 3D system (Merck Millipore) and Milliplex analyst software was used to determine mean fluorescence intensity and analyte concentration.

`CC(=O)Nc1nc2ncc(C=O)nc2c(=O)[nH]1` [Ac-6-FP, acetyl-6-formyl pterin]: in the data set with control MAIT cells, the “E. coli stimulation of control MAIT cells in the presence of the ligand” value is recorded as “impaired” and the “inhibition of activation of MAIT cells” value is on record as “failed to inhibit”. Further, in the data set on MR1T cell clones, the “MR1T cell stimulation in the presence of the ligand” value is “impaired” and the “inhibition of activation of MR1T cells” value was “failed to inhibit”. In the data set with TCR Vγ9Vδ2 clone G2B9, the “control TCR γδ cell responses to cognate antigen presented by the same APCs (compound toxicity)” value is reported as “did not disrupt”.
With `Nc1nc2ncc(C=O)nc2c(=O)[nH]1` [Clone 6-FP, 6-formyl pterin], in the data set with control MAIT cells, the “E. coli stimulation of control MAIT cells in the presence of the ligand” value is “impaired” and the “inhibition of activation of MAIT cells” value was “failed to inhibit”. Moreover, in the data set on MR1T cell clones, the “MR1T cell stimulation in the presence of the ligand” value is reported as “impaired” and the “inhibition of activation of MR1T cells” value is reported as “failed to inhibit”. Besides, the “control TCR γδ cell responses to cognate antigen presented by the same APCs (compound toxicity)” value in the data set on TCR Vγ9Vδ2 clone G2B9 is on record as “did not disrupt”.
For `Cc1nc2c(=O)[nH]c(=O)nc-2n(C[C@H](O)[C@H](O)[C@H](O)CO)c1C` [RL-6,7-diMe, 6,7-dimethyl-8-D-ribityllumazine], the “stimulation of control MAIT cell clone” value in the data set on MAIT cell clone SMC3 is recorded as “stimulated in MR1-dependent manner”.
